The values below come from patent US7172862B2, “FBL2-specific agents as modulators of Flaviviridae RNA replication” (Board of Regents, The University of Texas System, priority 2005, dated 2007).

Experiment [1] deals with HCV RNA replication. The conditions noted are these: cited from earlier work; for overcoming of the inhibition of HCV RNA replication by lovastatin: added with lovastatin.
Experiment [2] relates to HCV RNA. In words: HCV RNA level / replication in Huh7-HP replicon cells. The class given is cell-based. The conditions noted are these: drug treatment. The text has this: Further evidence that FBL2 is required for HCV RNA replication was obtained in experiments in which the level of FBL2 mRNA was reduced by transfection with duplex siRNA. An siRNA sequence targeting human FBL2 and having a sequence corresponding to positions 40-60 relative to the first nucleotide start codon, was transfected into Huh7-HP cells with TransMessenger transfection reagent (Qiagen) according to the manufacturer's protocol. […] We confirmed that these cells resemble the other HCV replicon cell lines in that HCV replication is inhibited by treatment with lovastatin (Ye et al., 2003) or an inhibitor of GGTase-I, GGTI-286. The NS5A derived from these cells interacts with FBL2. siRNA targeting FBL2 was and produced a 70% knockdown of FBL2 mRNA, an effect that was not observed when the cells were treated with a control siRNA containing 6 mismatched nucleotides.

In experiment [3] the test system is wild-type FBL2. In words: Subcellular fractionation (cytosol/membrane) and immunoblot of transfected wild-type FBL2 in CHO-7 cells. The class given is cell-based. Conditions: CHO-7 cells transfected with Myc-tagged wild-type FBL2; immunoblot anti-Myc. On the procedure:
(§1) Since prenylation of proteins normally facilitates their membrane association, we compared the localization of wild-type FBL2 and the mutant FBL2 that cannot be prenylated. CHO-7 cells transfected with a plasmid encoding NH2-terminal Myc-tagged wild-type FBL2 or mutant FBL2(C420S) were treated either with GGTI-286, a drug that inhibits both geranylgeranylation and farnesylation, or with FPTI-III, a drug that inhibits only farnesylation (Ye et al., 2003). Cells were fractionated into cytosol and membrane fractions, and immunoblotted with monoclonal anti-Myc IgG-9E10.
Background: Immunoblotting shows a protein as a band on a membrane.

The test system of experiment [4] is mutant FBL2(C420S). In words: Subcellular fractionation (cytosol/membrane) and immunoblot of transfected mutant FBL2(C420S) in CHO-7 cells. The class given is cell-based. The conditions noted are these: CHO-7 cells transfected with Myc-tagged FBL2(C420S). On the procedure:
as §1

Experiment [5] relates to NS5A. Conditions: Huh7 cells; anti-Flag pull-down of NS5A, anti-Myc blot. The text has this:
To determine the components of FBL2 that are required for interaction with the NH2-terminal half of NS5A, we made plasmids encoding the following proteins: NH2-terminal Myc-tagged wild-type FBL2, FBL2 with its CAAX box mutated so that it cannot be geranylgeranylated (C420S), FBL2 with its NH2-terminal F-box deleted (FBL2(67-423)), and FBL2 with both its F-box deleted and its CAAX box mutated (FBL2 67-423, C420S). These plasmids were transfected into Huh7 cells together with a plasmid encoding Flag and HA-tagged NS5A. Cell extracts were immunoprecipitated with anti-Flag beads to pull down NS5A and blotted with anti-HA and anti-Myc for detection of transfected NS5A and FBL2, respectively.

Experiment [6] concerns HCV RNA replicon. In words: HCV RNA level in Huh7-K2040 replicon cells after transfection of FBL2 plasmids. The class given is cell-based. The conditions noted are these: at least 80% of cells transfected. The text has this:
FBL2(67-423), which lacks an F-box, is likely to be nonfunctional, yet it still binds to NS5A. We therefore considered the possibility that overexpression of FBL2(67-423) may inhibit HCV RNA replication in a dominant-negative fashion by sequestering NS5A and preventing it from interacting with endogenous functional FBL2. To test this hypothesis, we transfected plasmids encoding wild-type and various mutant versions of FBL2 into Huh7-K2040 cells that harbor the HCV RNA replicon. As described above, we included only those experiments in which at least 80% of the cells were transfected. […] Importantly, transfected FBL2(67-423; C420S), which cannot bind to NS5A, had no effect on HCV RNA levels.
In general terms: A replicon is a self-replicating genome or part of one, used to study replication in cells.

Experiment [7] has as its system West Nile virus replicon. In words: West Nile virus replicon RNA level in Huh7-WNV-2 cells after transfection of FBL2 plasmids. It is filed as cell-based. Conditions: conditions reducing HCV RNA by 75%.

In the case of `CC[C@H](C)C(=O)O[C@H]1C[C@@H](C)C=C2C=C[C@H](C)[C@H](CC[C@@H]3C[C@@H](O)CC(=O)O3)[C@H]21` [lovastatin], in experiment [1] (Huh7 cells), the “HCV RNA replication” value is “disrupted”. Further, the HCV replication entry in experiment [2] is given as “inhibited”.

In the case of `CC(C)=CCCC(C)=CCCC(C)=CCO` [farnesol], the “overcoming of the inhibition of HCV RNA replication by lovastatin” value in experiment [1] was “not”.

Consider FPTI-III, for which, in experiment [3], the “localization of wild-type FBL2 in cytosol and membrane fractions” value is recorded as “not”.

Take `CC(C)=CCC/C(C)=C/CC/C(C)=C/CC/C(C)=C/CO` [geranylgeraniol]: the “overcoming of the inhibition of HCV RNA replication by lovastatin” value in experiment [1] was “overcome”.

Turning to `COC(=O)[C@H](CC(C)C)NC(=O)c1ccc(NC[C@@H](N)CS)cc1-c1ccccc1` [GGTI-286], the “subcellular localization of the mutant FBL2 that lacks a CAAX motif” value in experiment [4] is recorded as “did not change”. The HCV replication entry in experiment [2] is on record as “inhibited”. In addition, the “localization of wild-type FBL2 in cytosol and membrane fractions” value in experiment [3] is “distributed equally in cytosol and membrane fractions”.

B1: wild-type FBL2: NH2-terminal Myc-tagged wild-type FBL2 expressed from a transfected plasmid (protein, UniProt Q9UKC9 1-423, looked up)
F-box/LRR-repeat protein 2: MVFSNNDEGLINKKLPKELLLRIFSFLDIVTLCRCAQISKAWNILALDGSNWQRIDLFNFQTDVEGRVVENISKRCGGFLRKLSLRGCIGVGDSSLKTFAQNCRNIEHLNLNGCTKITDSTCYSLSRFCSKLKHLDLTSCVSITNSSLKGISEGCRNLEYLNLSWCDQITKDGIEALVRGCRGLKALLLRGCTQLEDEALKHIQNYCHELVSLNLQSCSRITDEGVVQICRGCHRLQALCLSGCSNLTDASLTALGLNCPRLQILEAARCSHLTDAGFTLLARNCHELEKMDLEECILITDSTLIQLSIHCPKLQALSLSHCELITDDGILHLSNSTCGHERLRVLELDNCLLITDVALEHLENCRGLERLELYDCQQVTRAGIKRMRAQLPHVKVHAYFAPVTPPTAVAGSGQRLCRCCVIL
modifications: N-terminal Myc tag
notes: NH2-terminal Myc-tagged wild-type FBL2 expressed from a transfected plasmid
Regarding B1, the “co-precipitation with NS5A” value in experiment [5] was “co-precipitated”. In addition, the “reduction of the level of HCV RNA” value in experiment [6] is given as “did not change”.

B2: FBL2(50-423): alternative FBL2 N-terminal truncation (protein, UniProt Q9UKC9 50-423, looked up, fragment)
chain: SNWQRIDLFNFQTDVEGRVVENISKRCGGFLRKLSLRGCIGVGDSSLKTFAQNCRNIEHLNLNGCTKITDSTCYSLSRFCSKLKHLDLTSCVSITNSSLKGISEGCRNLEYLNLSWCDQITKDGIEALVRGCRGLKALLLRGCTQLEDEALKHIQNYCHELVSLNLQSCSRITDEGVVQICRGCHRLQALCLSGCSNLTDASLTALGLNCPRLQILEAARCSHLTDAGFTLLARNCHELEKMDLEECILITDSTLIQLSIHCPKLQALSLSHCELITDDGILHLSNSTCGHERLRVLELDNCLLITDVALEHLENCRGLERLELYDCQQVTRAGIKRMRAQLPHVKVHAYFAPVTPPTAVAGSGQRLCRCCVIL
Regarding B2, the “reduction of the level of HCV RNA” value in experiment [6] was “dominant-negative affects”.

B3: FBL2(67-423): FBL2 with its NH2-terminal F-box deleted; dominant-negative for HCV RNA replication (protein, UniProt Q9UKC9 67-423, looked up, fragment)
chain: RVVENISKRCGGFLRKLSLRGCIGVGDSSLKTFAQNCRNIEHLNLNGCTKITDSTCYSLSRFCSKLKHLDLTSCVSITNSSLKGISEGCRNLEYLNLSWCDQITKDGIEALVRGCRGLKALLLRGCTQLEDEALKHIQNYCHELVSLNLQSCSRITDEGVVQICRGCHRLQALCLSGCSNLTDASLTALGLNCPRLQILEAARCSHLTDAGFTLLARNCHELEKMDLEECILITDSTLIQLSIHCPKLQALSLSHCELITDDGILHLSNSTCGHERLRVLELDNCLLITDVALEHLENCRGLERLELYDCQQVTRAGIKRMRAQLPHVKVHAYFAPVTPPTAVAGSGQRLCRCCVIL
Take B3: the “co-precipitation with NS5A” value in experiment [5] is recorded as “co-precipitated”. The “change in the level of West Nile virus replicon RNA” value in experiment [7] is reported as “no significant change”.

B4: FBL2(67-423; C420S): FBL2 with both its F-box deleted and its CAAX box mutated (protein, UniProt Q9UKC9 67-423, looked up, fragment C420S)
chain: RVVENISKRCGGFLRKLSLRGCIGVGDSSLKTFAQNCRNIEHLNLNGCTKITDSTCYSLSRFCSKLKHLDLTSCVSITNSSLKGISEGCRNLEYLNLSWCDQITKDGIEALVRGCRGLKALLLRGCTQLEDEALKHIQNYCHELVSLNLQSCSRITDEGVVQICRGCHRLQALCLSGCSNLTDASLTALGLNCPRLQILEAARCSHLTDAGFTLLARNCHELEKMDLEECILITDSTLIQLSIHCPKLQALSLSHCELITDDGILHLSNSTCGHERLRVLELDNCLLITDVALEHLENCRGLERLELYDCQQVTRAGIKRMRAQLPHVKVHAYFAPVTPPTAVAGSGQRLCRCSVIL
As for B4, the “co-precipitation with NS5A” value in experiment [5] was “abrogated binding”. The “reduction of the level of HCV RNA” value in experiment [6] is “no effect”.

B5: FBL2(100-423): alternative FBL2 N-terminal truncation (protein, UniProt Q9UKC9 100-423, looked up, fragment)
chain: AQNCRNIEHLNLNGCTKITDSTCYSLSRFCSKLKHLDLTSCVSITNSSLKGISEGCRNLEYLNLSWCDQITKDGIEALVRGCRGLKALLLRGCTQLEDEALKHIQNYCHELVSLNLQSCSRITDEGVVQICRGCHRLQALCLSGCSNLTDASLTALGLNCPRLQILEAARCSHLTDAGFTLLARNCHELEKMDLEECILITDSTLIQLSIHCPKLQALSLSHCELITDDGILHLSNSTCGHERLRVLELDNCLLITDVALEHLENCRGLERLELYDCQQVTRAGIKRMRAQLPHVKVHAYFAPVTPPTAVAGSGQRLCRCCVIL
In the case of B5, the “reduction of the level of HCV RNA” value in experiment [6] is recorded as “dominant-negative affects”.
